{
  "source": "patent US20090203716A1",
  "about": "“Pyrimidine low molecular weight ligands for modulating hormone receptors” (The Government of the United States of America as …, priority 2006, published 2009)",
  "key": {"TSHR mutant M9": {"system": "TSHR mutant M9", "test": "cAMP production in HEK-EM 293 cells transiently expressing TSHR mutant M9", "format": "cell-based, human", "conditions": "30 μM compound", "procedure": "HEK-EM 293 cells were grown in Dulbecco's modified Eagle's Medium (DMEM) supplemented with 10% fetal bovine serum, 100 units/ml penicillin and 10 μg/ml streptomycin (Life Technologies Inc.) at 37° C. in a humidified 5% CO2 incubator. Cells were transiently transfected with wild type TSHR and mutant receptors in 24-well plates (7.5×10^4 cells per well) with 0.4 μg DNA/well using FuGENE™ 6 reagent (Roche) according to the manufacturer's protocol.\nThe M9 mutant is described in Jaschke et al., J Biol Chem 281:9841-9844. The Y7.42A mutant was introduced into hTSHR-pcDNA3.1 via the QuickChange XL Site-Directed Mutagenesis kit (Stratagene). The construct was verified by sequencing (MWG Biotech).\nTransiently transfected cells were cultured for 48 hours before the cAMP assay. HEK-EM 293 cells stably expressing TSHR, LHCGR or FSHR were seeded into 24-well plates with a density of 2.2×10^5 cells/well 24 hours before the cAMP assay. […] The intracellular cAMP content was determined with the cAMP Biotrak Enzymeimmunoassay (EIA) System (GE Healthcare). Data were analyzed using GraphPad Prism 4 for Windows. Receptor expression was measured as described in Jaschke et al., J Biol Chem 281:9841-9844."}, "FSHR": {"target": "T1, FSHR (Homo sapiens, UniProt P23945)", "T1 sequence (P23945 18-695)": "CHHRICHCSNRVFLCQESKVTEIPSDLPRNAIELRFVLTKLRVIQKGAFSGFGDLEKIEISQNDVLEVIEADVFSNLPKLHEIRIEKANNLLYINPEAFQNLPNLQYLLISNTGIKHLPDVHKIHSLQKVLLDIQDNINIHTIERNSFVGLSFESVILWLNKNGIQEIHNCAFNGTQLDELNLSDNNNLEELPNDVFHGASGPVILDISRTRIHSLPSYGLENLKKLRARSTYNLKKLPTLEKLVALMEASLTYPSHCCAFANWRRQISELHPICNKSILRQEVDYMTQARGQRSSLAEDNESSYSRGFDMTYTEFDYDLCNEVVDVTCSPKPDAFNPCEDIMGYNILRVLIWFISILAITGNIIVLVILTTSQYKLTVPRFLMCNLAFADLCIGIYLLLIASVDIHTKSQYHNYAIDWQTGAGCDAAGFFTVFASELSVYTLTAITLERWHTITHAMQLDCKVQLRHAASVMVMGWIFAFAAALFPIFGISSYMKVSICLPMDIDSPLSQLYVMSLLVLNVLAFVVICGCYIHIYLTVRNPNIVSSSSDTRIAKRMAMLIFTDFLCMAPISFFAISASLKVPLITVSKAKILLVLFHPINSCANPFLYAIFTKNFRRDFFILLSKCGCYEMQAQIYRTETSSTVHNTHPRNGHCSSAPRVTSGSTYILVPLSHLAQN", "test": "intracellular cAMP accumulation in HEK-EM 293 cells stably expressing FSHR", "format": "cell-based", "procedure": "The expression vectors for human TSHR and LHR are described in Jaschke et al., J Biol Chem 281:9841-9844. The FSHR cDNA in pcDNA3.1 was obtained from the Missouri S&T cDNA Resource Center (www.cDNA.org) and was subcloned into the pcDNA3.1(−)/hygromycin vector. HEK-EM 293 cells were transfected with the cDNA of TSHR, LHCGR or FSHR using FuGENE 6 Transfection reagent (Roche Diagnostics). Hygromycin (250 μg/ml) was used as selection marker.\nTransiently transfected cells were cultured for 48 hours before the cAMP assay. HEK-EM 293 cells stably expressing TSHR, LHCGR or FSHR were seeded into 24-well plates with a density of 2.2×10^5 cells/well 24 hours before the cAMP assay. After removal of growth medium, cells were incubated for 1 hour in HBSS (Cellgro) with 10 mM HEPES (Cellgro) containing 1 mM 3-isobutyl-1-methylxanthine (IBMX) (Sigma) and the ligand of interest in a humidified 5% CO2 incubator at 37° C. The intracellular cAMP content was determined with the cAMP Biotrak Enzymeimmunoassay (EIA) System (GE Healthcare). Data were analyzed using GraphPad Prism 4 for Windows. Receptor expression was measured as described in Jaschke et al., J Biol Chem 281:9841-9844."}, "[1]": {"system": "thyroperoxidase (TPO) mRNA expression in human thyrocytes", "test": "TPO mRNA expression in primary cultures of human thyrocytes", "format": "cell-based", "set-up": "inhibition of TSH-stimulated increase of TPO mRNA expression: dose or concentration left out as unconfirmed", "procedure": "Thyroid tissue samples were obtained through the NIH Clinical Center during surgery for unrelated reasons. Patients provided informed consent on an IRB approved protocol and materials were received anonymously via approval of research activity through the Office of Human Subjects Research. The specimens were maintained in HBSS on ice and isolation of cells was initiated within 4 hours after surgery. All preparations were performed under sterile conditions. Tissue samples were minced into small pieces by fine surgical forceps and scissors in a 10 cm dish with a small volume of HBSS. Tissue pieces were transferred to a 15 ml tube (Falcon) and washed at least 3 times with HBSS. Afterward, tissue pieces were incubated with HBSS containing 3 mg/ml Collagenase Type IV (Gibco). Enzymatic digestion proceeded for 30 minutes or longer with constant shaking in a water bath at 37° C. until a suspension of isolated cells was obtained. After centrifugation for 5 minutes at 1000 rpm, the supernatant was removed and cells were resuspended in 10 ml DMEM with 10% FBS. Cells were plated in 10 cm tissue culture dishes and incubated at 37° C. in a humidified 5% CO2 incubator. After 24 hours, the supernatant containing non-adherent cells was removed. The primary cultures of thyroid cells formed a confluent monolayer within 5-7 days. […]"}},
  "data": [
    {"smiles": "COC/C=C/c1ccc(-c2nc(SC)nc3sc(C(=O)NC(C)(C)C)c(N)c23)cc1", "note": "[Compound 52]", "values": [
      {"measurement": "cAMP production, fold over TSHR basal activity, M9", "setting": "TSHR mutant M9", "result": "13.2±1.7", "unit": "fold"},
      {"measurement": "activity at FSHR", "setting": "FSHR", "result": "no activity"},
      {"measurement": "inhibition of TSH-stimulated increase of TPO mRNA expression", "setting": "[1]; 1 hour pretreatment, 24 hours with TSH, thyrocytes from two donors", "result": "inhibited"},
      {"measurement": "inhibition of TsAb-stimulated TPO mRNA expression", "setting": "[1]; Graves' disease sera 1:50, 10 μM compound, 24 hours", "result": "inhibited"}
    ]}
  ]
}
